Data on 2 molecules can be found in BindingDB's records for patent US20250268873 (XRAD Therapeutics, 2025).

pIC50: −log10 of the molar value.

In assay [1] the target is DNA-dependent protein kinase catalytic subunit (Homo sapiens, UniProt P78527). The assay is described as follows: DNA-PK Enzyme-Linked Immunosorbent Assay. The protocol: On day one, a 96-well plate (ThermoFisher, Cat #: 442404) was coated with GST-p53 (1-101) peptide (purified by Pharmaron, BCS department) by diluting 3 μg of GST-p53 in each well with 0.1 M Na2CO3/NaHCO3 (pH 9.6). The plate was incubated overnight at 4° C. On the second day, the coating buffer was removed, and the plate was washed twice with PBST (1×PBS containing 0.1% Tween-20). The DNA-PK enzyme solution (Invitrogen, #PR9107A; the final DNA-PK concentration: 0.1 μg/mL) was then added. The compounds were serially diluted to the final maximal concentration of 100 nM (3 fold series dilution, a total of 10 doses), and an ATP solution (the final ATP concentration: 20 μM) was added to the plate. Incubate the plate at 25° C. for 1 hour. The plate was washed three times with PBST (1×PBS containing 0.1% Tween-20) and blocked with a solution of PBST and 1% BSA at 4° C. overnight. The third day, the plate was washed four times with PBST (1×PBS containing 0.1% Tween-20). Anti-phospho-p53 primary antibody (cell signaling Technology, #9286, Phospho-p53 (Ser15) (16G8) Mouse mAb) (1/1000) was added to each well. The plate was sealed, incubated 1 h at 37° C., and washed four times with PBST (1×PBS containing 0.1% Tween-20). An HRP-linked secondary antibody (Cell signaling Technology, #7076, Anti-mouse IgG, HRP-linked Antibody) (1/1000) (100 μL) was added to each well. […]

Assay [2] has as its target Phosphatidylinositol 4,5-bisphosphate 3-kinase catalytic subunit alpha isoform (Homo sapiens, UniProt P42336). Kind of assay: PI3Kα and PI3Kδ Biochemical Assay. The protocol: (§1) PI3Kα and PI3Kδ Kinase reactions were performed in a 5 μL volume in low-volume 384-well plates. Typically, PerkinElmer model 6008280 plates were used. The 1× kinase reaction buffer consisted of 50 mM HEPES pH 7.5, 3 mM MgCl2, 0.03% CHAPS, 1 mM EGTA, 100 mM NaCl, and 2 mM DTT. PI3Kα (ThermoFisher, #PV4788; the final PI3Kα concentration: 120 ng/mL) or PI3Kδ enzyme solution (ThermoFisher, #PV6451; the final PI3Kδ concentration: 250 ng/mL) was added to the plate, compounds were serially diluted to the final maximal concentration of 100 nM (3 fold series dilution, a total of 10 doses), and the PIP2:3PS (the final concentration: 10 μg/mL) and ATP solution (the final ATP concentration: 10 μM) was added to the 384-well plate. The plate was incubated at 25° C. for 1 hour. ADP-Glo reagent buffer (5 μL) was added to each well. The plate was sealed and incubated for 40 min at 25° C. ADP-Glo detection buffer (10 μL) was added to each well, and the plate was incubated for 40 min at 25° C. and read on a plate reader configured for Luminescence.

For assay [3], the target named is T1, Phosphatidylinositol 4,5-bisphosphate 3-kinase catalytic subunit delta isoform (Homo sapiens, UniProt O00329).
T1 sequence (O00329 whole entry): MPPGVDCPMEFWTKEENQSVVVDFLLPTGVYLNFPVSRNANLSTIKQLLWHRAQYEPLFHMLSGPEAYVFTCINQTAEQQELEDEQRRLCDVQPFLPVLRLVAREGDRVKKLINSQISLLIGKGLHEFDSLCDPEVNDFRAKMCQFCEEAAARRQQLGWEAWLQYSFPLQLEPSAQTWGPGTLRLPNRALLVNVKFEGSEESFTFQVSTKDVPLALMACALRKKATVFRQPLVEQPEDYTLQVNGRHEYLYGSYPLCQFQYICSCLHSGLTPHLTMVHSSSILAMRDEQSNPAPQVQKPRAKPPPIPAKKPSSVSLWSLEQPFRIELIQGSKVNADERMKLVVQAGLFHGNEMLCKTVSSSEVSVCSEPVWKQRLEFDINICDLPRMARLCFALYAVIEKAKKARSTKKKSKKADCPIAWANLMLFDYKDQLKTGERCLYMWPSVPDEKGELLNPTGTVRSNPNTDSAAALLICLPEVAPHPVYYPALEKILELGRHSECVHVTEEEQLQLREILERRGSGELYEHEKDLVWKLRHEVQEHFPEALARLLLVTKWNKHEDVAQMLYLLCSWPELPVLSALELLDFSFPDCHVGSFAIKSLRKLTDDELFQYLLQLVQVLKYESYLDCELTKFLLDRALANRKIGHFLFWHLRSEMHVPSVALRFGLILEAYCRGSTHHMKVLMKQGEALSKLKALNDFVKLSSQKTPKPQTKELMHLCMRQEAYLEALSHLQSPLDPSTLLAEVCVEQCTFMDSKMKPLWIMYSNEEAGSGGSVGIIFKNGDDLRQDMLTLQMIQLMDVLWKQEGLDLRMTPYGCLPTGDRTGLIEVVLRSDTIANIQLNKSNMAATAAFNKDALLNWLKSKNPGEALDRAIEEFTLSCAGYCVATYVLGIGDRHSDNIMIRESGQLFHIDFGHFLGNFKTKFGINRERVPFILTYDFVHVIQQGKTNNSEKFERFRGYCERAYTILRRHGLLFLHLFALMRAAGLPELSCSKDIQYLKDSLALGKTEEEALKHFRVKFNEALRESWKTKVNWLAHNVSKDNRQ
The assay is described as follows: PI3Kα and PI3Kδ Biochemical Assay. The method, then:
as §1

As usually defined, the pIC50 is the negative decadic logarithm of the IC50, by convention in mol/L.

Sequence of DNA-dependent protein kinase catalytic subunit (P78527 whole entry): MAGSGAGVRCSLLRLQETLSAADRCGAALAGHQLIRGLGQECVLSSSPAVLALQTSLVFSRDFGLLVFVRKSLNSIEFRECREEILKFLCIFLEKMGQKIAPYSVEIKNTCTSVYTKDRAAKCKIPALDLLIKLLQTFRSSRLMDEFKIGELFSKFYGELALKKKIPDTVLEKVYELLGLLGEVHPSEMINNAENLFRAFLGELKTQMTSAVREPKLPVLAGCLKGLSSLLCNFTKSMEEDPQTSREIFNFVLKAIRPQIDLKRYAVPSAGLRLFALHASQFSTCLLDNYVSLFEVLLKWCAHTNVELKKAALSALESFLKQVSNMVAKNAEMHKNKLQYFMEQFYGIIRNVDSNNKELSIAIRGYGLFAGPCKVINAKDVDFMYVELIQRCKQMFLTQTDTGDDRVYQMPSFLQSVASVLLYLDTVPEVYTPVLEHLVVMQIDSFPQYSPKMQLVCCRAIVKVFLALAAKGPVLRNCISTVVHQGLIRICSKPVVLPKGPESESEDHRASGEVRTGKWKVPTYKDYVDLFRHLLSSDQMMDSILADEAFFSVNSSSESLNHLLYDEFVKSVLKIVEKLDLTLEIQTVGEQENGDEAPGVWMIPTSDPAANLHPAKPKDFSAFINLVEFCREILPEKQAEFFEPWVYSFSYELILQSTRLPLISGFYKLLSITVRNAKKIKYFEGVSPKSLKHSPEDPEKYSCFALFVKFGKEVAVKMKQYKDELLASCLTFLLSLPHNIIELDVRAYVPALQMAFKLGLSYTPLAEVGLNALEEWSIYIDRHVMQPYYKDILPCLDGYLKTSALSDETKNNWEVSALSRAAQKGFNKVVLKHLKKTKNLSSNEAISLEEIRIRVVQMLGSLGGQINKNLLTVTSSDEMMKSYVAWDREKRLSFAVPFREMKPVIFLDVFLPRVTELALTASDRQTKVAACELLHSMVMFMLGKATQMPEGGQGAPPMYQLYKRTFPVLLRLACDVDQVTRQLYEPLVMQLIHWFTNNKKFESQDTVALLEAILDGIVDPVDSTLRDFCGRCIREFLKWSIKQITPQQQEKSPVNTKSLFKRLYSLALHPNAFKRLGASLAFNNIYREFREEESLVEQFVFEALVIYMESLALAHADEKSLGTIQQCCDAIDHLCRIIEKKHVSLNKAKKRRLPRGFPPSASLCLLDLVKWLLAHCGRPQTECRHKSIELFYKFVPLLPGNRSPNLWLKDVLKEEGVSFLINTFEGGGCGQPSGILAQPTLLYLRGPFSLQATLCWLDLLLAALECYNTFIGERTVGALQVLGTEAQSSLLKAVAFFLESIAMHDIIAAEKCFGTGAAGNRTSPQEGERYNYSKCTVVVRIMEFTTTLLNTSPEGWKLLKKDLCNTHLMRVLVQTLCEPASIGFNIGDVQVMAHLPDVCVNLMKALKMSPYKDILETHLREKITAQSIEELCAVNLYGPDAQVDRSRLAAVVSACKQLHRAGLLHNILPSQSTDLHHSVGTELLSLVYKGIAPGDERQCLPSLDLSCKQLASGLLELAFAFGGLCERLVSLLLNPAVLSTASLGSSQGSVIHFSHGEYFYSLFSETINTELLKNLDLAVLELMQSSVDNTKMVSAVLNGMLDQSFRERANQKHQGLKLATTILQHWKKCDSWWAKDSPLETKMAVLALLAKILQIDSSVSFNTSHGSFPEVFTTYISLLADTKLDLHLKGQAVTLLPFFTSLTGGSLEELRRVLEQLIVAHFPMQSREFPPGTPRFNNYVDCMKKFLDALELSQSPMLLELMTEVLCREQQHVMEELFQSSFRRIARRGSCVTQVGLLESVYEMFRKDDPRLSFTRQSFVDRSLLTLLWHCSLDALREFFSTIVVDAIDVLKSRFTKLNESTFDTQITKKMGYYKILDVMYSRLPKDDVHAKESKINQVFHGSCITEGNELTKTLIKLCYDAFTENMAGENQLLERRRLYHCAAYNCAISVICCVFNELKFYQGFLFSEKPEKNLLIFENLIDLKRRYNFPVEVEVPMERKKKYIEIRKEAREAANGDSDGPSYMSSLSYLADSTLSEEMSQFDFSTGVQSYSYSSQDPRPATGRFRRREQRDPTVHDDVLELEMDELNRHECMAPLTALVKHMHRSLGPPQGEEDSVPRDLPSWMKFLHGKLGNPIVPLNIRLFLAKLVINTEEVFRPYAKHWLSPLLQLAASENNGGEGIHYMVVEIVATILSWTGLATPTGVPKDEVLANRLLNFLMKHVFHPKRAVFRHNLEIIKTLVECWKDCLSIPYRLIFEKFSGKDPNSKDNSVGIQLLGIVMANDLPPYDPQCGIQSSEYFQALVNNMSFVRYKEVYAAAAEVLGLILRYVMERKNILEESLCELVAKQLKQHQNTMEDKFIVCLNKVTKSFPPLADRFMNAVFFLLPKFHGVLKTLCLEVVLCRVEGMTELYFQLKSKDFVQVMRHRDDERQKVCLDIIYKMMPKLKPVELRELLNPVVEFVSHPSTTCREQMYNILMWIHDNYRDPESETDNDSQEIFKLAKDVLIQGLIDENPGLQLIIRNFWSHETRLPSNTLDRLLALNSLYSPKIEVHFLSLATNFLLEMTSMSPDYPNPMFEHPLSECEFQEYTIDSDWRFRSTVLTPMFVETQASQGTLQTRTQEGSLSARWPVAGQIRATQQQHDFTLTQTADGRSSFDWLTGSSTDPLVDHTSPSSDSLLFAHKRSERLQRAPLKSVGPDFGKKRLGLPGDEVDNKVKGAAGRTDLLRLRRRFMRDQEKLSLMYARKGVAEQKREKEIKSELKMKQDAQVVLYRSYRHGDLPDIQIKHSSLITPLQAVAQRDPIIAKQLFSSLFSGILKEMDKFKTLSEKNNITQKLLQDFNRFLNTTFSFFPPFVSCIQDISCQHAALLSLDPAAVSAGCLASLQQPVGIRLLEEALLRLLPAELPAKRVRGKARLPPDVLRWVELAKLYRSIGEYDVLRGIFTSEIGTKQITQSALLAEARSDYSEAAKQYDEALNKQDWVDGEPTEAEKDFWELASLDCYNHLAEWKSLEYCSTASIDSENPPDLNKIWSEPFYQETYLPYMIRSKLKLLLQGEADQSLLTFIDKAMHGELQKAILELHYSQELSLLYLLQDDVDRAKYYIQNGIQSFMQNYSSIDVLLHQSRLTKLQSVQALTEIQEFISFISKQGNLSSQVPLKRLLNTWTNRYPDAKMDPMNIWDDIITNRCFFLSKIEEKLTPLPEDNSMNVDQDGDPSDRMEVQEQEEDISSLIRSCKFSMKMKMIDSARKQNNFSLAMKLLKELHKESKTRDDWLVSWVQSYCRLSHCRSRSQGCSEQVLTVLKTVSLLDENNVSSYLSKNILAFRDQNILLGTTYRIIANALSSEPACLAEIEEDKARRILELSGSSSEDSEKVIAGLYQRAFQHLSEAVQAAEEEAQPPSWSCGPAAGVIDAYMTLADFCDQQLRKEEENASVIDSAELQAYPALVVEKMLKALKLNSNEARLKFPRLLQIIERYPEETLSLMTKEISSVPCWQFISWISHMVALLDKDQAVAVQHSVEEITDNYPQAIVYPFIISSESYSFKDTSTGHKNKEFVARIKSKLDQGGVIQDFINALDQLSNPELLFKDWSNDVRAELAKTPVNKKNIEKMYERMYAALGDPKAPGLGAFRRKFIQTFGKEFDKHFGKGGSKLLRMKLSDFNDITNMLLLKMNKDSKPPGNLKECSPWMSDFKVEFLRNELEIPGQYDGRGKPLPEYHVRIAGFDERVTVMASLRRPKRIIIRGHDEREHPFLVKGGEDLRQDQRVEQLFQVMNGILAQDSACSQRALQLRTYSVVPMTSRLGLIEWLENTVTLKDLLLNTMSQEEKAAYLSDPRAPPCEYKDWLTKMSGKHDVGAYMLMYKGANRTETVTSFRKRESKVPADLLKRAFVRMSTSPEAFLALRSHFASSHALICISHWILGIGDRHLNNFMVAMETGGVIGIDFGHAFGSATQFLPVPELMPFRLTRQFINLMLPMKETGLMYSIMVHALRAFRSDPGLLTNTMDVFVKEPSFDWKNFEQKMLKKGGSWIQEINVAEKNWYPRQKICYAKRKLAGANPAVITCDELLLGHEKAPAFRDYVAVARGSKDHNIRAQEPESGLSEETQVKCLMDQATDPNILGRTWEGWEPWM
Sequence of Phosphatidylinositol 4,5-bisphosphate 3-kinase catalytic subunit alpha isoform (P42336 whole entry, canonical isoform): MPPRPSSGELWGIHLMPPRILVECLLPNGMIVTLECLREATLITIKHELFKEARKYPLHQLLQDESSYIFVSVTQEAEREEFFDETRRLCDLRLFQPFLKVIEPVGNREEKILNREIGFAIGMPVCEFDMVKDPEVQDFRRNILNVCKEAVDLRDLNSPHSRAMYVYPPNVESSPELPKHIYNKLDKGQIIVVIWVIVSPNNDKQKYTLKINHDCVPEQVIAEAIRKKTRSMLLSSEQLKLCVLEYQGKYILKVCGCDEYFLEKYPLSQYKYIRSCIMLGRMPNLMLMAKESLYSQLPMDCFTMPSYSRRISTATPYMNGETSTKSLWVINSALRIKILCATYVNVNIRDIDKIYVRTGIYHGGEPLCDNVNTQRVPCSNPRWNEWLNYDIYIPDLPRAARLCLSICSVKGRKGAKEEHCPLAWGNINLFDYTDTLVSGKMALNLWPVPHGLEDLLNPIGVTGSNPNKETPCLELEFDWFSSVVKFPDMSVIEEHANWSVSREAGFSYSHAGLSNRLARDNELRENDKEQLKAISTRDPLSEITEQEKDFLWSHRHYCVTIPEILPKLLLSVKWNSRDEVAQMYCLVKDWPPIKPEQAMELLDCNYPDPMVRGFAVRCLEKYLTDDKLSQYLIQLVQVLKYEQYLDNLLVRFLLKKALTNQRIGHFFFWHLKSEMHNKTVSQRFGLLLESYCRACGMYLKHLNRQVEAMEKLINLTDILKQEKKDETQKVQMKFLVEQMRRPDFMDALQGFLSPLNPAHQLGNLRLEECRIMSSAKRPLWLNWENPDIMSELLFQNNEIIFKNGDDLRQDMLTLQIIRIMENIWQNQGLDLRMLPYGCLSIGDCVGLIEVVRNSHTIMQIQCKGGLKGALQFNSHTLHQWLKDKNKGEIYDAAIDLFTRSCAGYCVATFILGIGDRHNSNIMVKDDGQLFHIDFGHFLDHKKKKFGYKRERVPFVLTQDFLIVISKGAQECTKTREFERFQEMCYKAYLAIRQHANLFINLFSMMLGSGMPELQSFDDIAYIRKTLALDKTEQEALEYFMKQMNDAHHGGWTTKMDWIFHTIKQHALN

With `CC(C)NCCOC1=NCC(C2=CC3C4=C(C=NC3CC2F)N(C)C(=O)C42CCC2)C=C1NS(=O)(=O)C(C)C` (stereo unspecified) [US20250268873, Compound 568], the pIC50 in assay [1] is 9.10; in assay [2], 7.74; in assay [3] it was 7.27.
Consider `CCS(=O)(=O)NC1=CC(C2=CC3C4=C(C=NC3CC2F)N(C)C(=O)C42CCC2)CN=C1OCCNC(C)C` (stereo unspecified) [US20250268873, Compound 570], for which the pIC50 in assay [1] was 9.20; in assay [2] it was 7.68; in assay [3] it was 7.26.
